# Legend:
# LPA 18:2 in rat plasma = assay: Rat whole blood (plasma) LPA assay; assay type: biochemical; settings: 2 h at 37 C, LPA 18:2 by LC-MS/MS
# Experimental: Whole blood is collected from rats or mouse by exsanguinations on sodium heparin tube, then after centrifugation at 3000 rpm for 15 min at 4° C., plasma is stored at −80° C. Compounds are diluted in DMSO in concentration dependent manner then 0.5 μL are dispensed into 96-well plate placed in ice. Plasma is defrosted on ice then 49.5 μL of plasma are added into the well containing 0.5 μL of compound (1% DMSO final). Plates are covered with a lid in polypropylene and incubated at +37° C., 5% CO2, for 2 h under gentle shaking (except controls which are stored at −20° C.).
# At the end of the incubation, controls are defrosted in ice and transferred in the incubated plates for LC-MS/MS analysis with a non GLP-validated method. For the analysis, plasma proteins from a 10 μL incubated plates are precipitated with an excess of methanol containing the internal standard, LPA 17:0. After centrifugation, the corresponding supernatant is injected on a C18 column. Analytes are eluted out of the column under isocratic conditions. An API5500 QTRAP mass spectrometer (ABSciex™) is used for the detection of LPA 18:2. No calibration curve is prepared for LPA 18:2, however relative quantities are evaluated based on the peak area.
# hENPP2 [1] = molecular target: T1, hENPP2 (UniProtKB/SwissProt Q13822) (Homo sapiens (Human), UniProt Q13822); assay: hENPP2 biochemical assay, LPC as substrate; settings: LPC (palmitoyl 16:0) as substrate
# Outline: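 Human ENPP2 in 50 mM Tris-HCl pH 8.5, 500 mM NaCl, 5 mM KCl, 10 mM CaCl2, 0.1% fatty-acid-free BSA, reacted 30 min at 37 °C with LPC 16:0 (150 µM solution added 1:1). Released choline measured via choline oxidase/peroxidase/TOOS/4-aminoantipyrine quinoneimine dye at 555 nm; IC50 reported.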
# hENPP2 [2] = molecular target: T1, hENPP2; assay: fluorescent hENPP2 biochemical assay, FS-3 as substrate; settings: read-out: FS3-IC50
# Outline: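 IC50 values come from fluorescence gained as FS-3 is hydrolysed (ex 485, em 520 nm). The reaction, started by adding 0.75 μM FS-3 solution, runs 30 min at 30° C after a 30 min room-temperature preincubation of compound with enzyme. Buffer: Tris-HCl pH 8.0 with NaCl, KCl, MgCl2, CaCl2 and 0.1% BSA.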
compound,measurement,setting,value
"CCc1nc2c(C)cc(N3CCN(CC(=O)N4CC(C)(O)C4)CC3)cn2c1N(C)c1nc(-c2ccc(F)cc2)c(C#N)s1 [Compound 3, 2-((2-ethyl-6-(4-(2-(3-hydroxy-3-methylazetidin-1-yl)-2-oxoethyl)piperazin-1-yl)-8-methylimidazo[1,2-a]pyridin-3-yl)(methyl)amino)-4-(4-fluorophenyl)thiazole-5-carbonitrile]",IC50,LPA 18:2 in rat plasma,100 to 500 nM
"CCc1nc2c(C)cc(N3CCN(CC(=O)N4CC(O)C4)C(C)(C)C3)cn2c1N(C)c1nc(-c2ccc(F)cc2)c(C#N)s1 [Compound 6, 2-((2-ethyl-6-(4-(2-(3-hydroxyazetidin-1-yl)-2-oxoethyl)-3,3-dimethylpiperazin-1-yl)-8-methylimidazo[1,2-a]pyridin-3-yl)(methyl)amino)-4-(4-fluorophenyl)thiazole-5-carbonitrile]",IC50,LPA 18:2 in rat plasma,100 to 500 nM
"CCc1nc2ccc(N3CCN(C(=O)C(C)=O)CC3)cn2c1N(C)c1nc(-c2ccc(F)cc2)cs1 [Compound 200, 1-(4-(2-ethyl-3-((4-(4-fluorophenyl)thiazol-2-yl)(methyl)amino)imidazo[1,2-a]pyridin-6-yl)piperazin-1-yl)propane-1,2-dione]",IC50,hENPP2 [1],> 1000 nM
same,IC50,hENPP2 [2],0.01 to 100 nM
"CCc1nc2ccc(N3CCN(C(=O)C4CCC(=O)N4)CC3)cn2c1N(C)c1nc(-c2ccc(F)cc2)cs1 (stereo not shown) [Compound 201, 5-(4-(2-ethyl-3-((4-(4-fluorophenyl)thiazol-2-yl)(methyl)amino)imidazo[1,2-a]pyridin-6-yl)piperazine-1-carbonyl)pyrrolidin-2-one]",IC50,hENPP2 [1],> 1000 nM
same,IC50,hENPP2 [2],0.01 to 100 nM
"CCc1nc2ccc(N3CCN(C(=O)C(N)=O)CC3)cn2c1N(C)c1nc(-c2ccc(F)cc2)cs1 [Compound 204, 2-(4-(2-ethyl-3-((4-(4-fluorophenyl)thiazol-2-yl)(methyl)amino)imidazo[1,2-a]pyridin-6-yl)piperazin-1-yl)-2-oxoacetamide]",IC50,hENPP2 [1],> 1000 nM
same,IC50,hENPP2 [2],0.01 to 100 nM
"CCc1nc2ccc(N3CCCCS3(=O)=O)cn2c1N(C)c1nc(-c2ccc(Cl)cc2)cs1 [Compound 207, 2-(2-ethyl-4-((4-(4-chlorophenyl)thiazol-2-yl)(methyl)amino)imidazo[1,2-a]pyridin-6-yl)-1-[1,2]thiazinane-1,1-dioxide]",IC50,hENPP2 [1],> 1000 nM
same,IC50,hENPP2 [2],0.01 to 100 nM
"CCc1nc2ccc(C3=CCN(C(=O)Nc4cccs4)CC3)cn2c1N(C)c1nc(-c2ccc(F)cc2)cs1 [Compound 208, 4-(2-ethyl-3-((4-(4-fluorophenyl)thiazol-2-yl)(methyl)amino)imidazo[1,2-a]pyridin-6-yl)-N-(thiophen-2-yl)-5,6-dihydropyridine-1(2H)-carboxamide]",IC50,hENPP2 [1],> 1000 nM
same,IC50,hENPP2 [2],0.01 to 100 nM
"CCc1nc2ccc(C3=CCN(S(C)(=O)=O)CC3)cn2c1N(C)c1nc(-c2ccc(Cl)cc2)cs1 [Compound 209, 4-(4-chlorophenyl)-N-(2-ethyl-6-(1-(methylsulfonyl)-1,2,3,6-tetrahydropyridin-4-yl)imidazo[1,2-a]pyridin-3-yl)-N-methylthiazol-2-amine]",IC50,hENPP2 [1],> 1000 nM
same,IC50,hENPP2 [2],0.01 to 100 nM
"CCc1nc2ccc(C3=CCN(S(=O)(=O)C(F)(F)F)CC3)cn2c1N(C)c1nc(-c2ccc(Cl)cc2)cs1 [Compound 210, 4-(4-chlorophenyl)-N-(2-ethyl-6-(1-(trifluoromethylsulfonyl)-1,2,3,6-tetrahydropyridin-4-yl)imidazo[1,2-a]pyridin-3-yl)-N-methylthiazol-2-amine]",IC50,hENPP2 [1],> 1000 nM
same,IC50,hENPP2 [2],0.01 to 100 nM
"CCc1nc2ccc(N3CCC(O)CC3)cn2c1N(C)c1nc(-c2ccc(F)cc2)cs1 [Compound 211, 1-(2-ethyl-3-((4-(4-fluorophenyl)thiazol-2-yl)(methyl)amino)imidazo[1,2-a]pyridin-6-yl)piperidin-4-ol]",IC50,hENPP2 [1],> 1000 nM
same,IC50,hENPP2 [2],0.01 to 100 nM
"CCc1nc2ccc(C3=CCN(C(=O)OC(C)(C)C)CC3)cn2c1N(C)c1nc(-c2ccc(F)cc2)cs1 [Compound 214, tert-butyl 4-(2-ethyl-3-((4-(4-fluorophenyl)thiazol-2-yl)(methyl)amino)imidazo[1,2-a]pyridin-6-yl)-5,6-dihydropyridine-1(2H)-carboxylate]",IC50,hENPP2 [1],> 1000 nM
same,IC50,hENPP2 [2],0.01 to 100 nM
"CCC(=O)N1CCC(c2ccc3nc(CC)c(N(C)c4nc(-c5ccc(F)cc5)cs4)n3c2)CC1 [Compound 215, 1-(4-(2-ethyl-3-((4-(4-fluorophenyl)thiazol-2-yl)(methyl)amino)imidazo[1,2-a]pyridin-6-yl)piperidin-1-yl)propan-1-one]",IC50,hENPP2 [1],100 to 500 nM
same,IC50,hENPP2 [2],0.01 to 100 nM
"CCc1nc2ccc(C3CCNCC3)cn2c1N(C)c1nc(-c2ccc(F)cc2)cs1 [Compound 216, N-(2-ethyl-6-(piperidin-4-yl)imidazo[1,2-a]pyridin-3-yl)-4-(4-fluorophenyl)-N-methylthiazol-2-amine]",IC50,hENPP2 [1],> 1000 nM
same,IC50,hENPP2 [2],0.01 to 100 nM
"CCc1nc2ccc(C3CCN(Cc4ccccc4)CC3)cn2c1N(C)c1nc(-c2ccc(F)cc2)cs1 [Compound 217, [6-(1-Benzyl-piperidin-4-yl)-2-ethyl-imidazo[1,2-a]pyridin-3-yl]-[4-(4-fluoro-phenyl)-thiazol-2-yl]-methyl-amine]",IC50,hENPP2 [1],> 1000 nM
same,IC50,hENPP2 [2],0.01 to 100 nM
"CCc1nc2ccc(C3CCN(C(C)C)CC3)cn2c1N(C)c1nc(-c2ccc(F)cc2)cs1 [Compound 218, N-(2-ethyl-6-(1-isopropylpiperidin-4-yl)imidazo[1,2-a]pyridin-3-yl)-4-(4-fluorophenyl)-N-methylthiazol-2-amine]",IC50,hENPP2 [1],> 1000 nM
same,IC50,hENPP2 [2],0.01 to 100 nM
"CCc1nc2ccc(C3CCN(C(=O)OC(C)(C)C)CC3)cn2c1N(C)c1nc(-c2ccc(F)cc2)cs1 [Compound 219, tert-butyl 4-(2-ethyl-3-((4-(4-fluorophenyl)thiazol-2-yl)(methyl)amino)imidazo[1,2-a]pyridin-6-yl)piperidine-1-carboxylate]",IC50,hENPP2 [1],> 1000 nM
same,IC50,hENPP2 [2],0.01 to 100 nM
"CCc1nc2ccc(C3=CCOCC3)cn2c1N(C)c1nc(-c2ccc(F)cc2)cs1 [Compound 220, N-(6-(3,6-dihydro-2H-pyran-4-yl)-2-ethylimidazo[1,2-a]pyridin-3-yl)-4-(4-fluorophenyl)-N-methylthiazol-2-amine]",IC50,hENPP2 [1],> 1000 nM
same,IC50,hENPP2 [2],0.01 to 100 nM
"CCc1nc2ccc(C3=CCOCC3)cn2c1N(C)c1nc(-c2ccc(Cl)cc2)cs1 [Compound 221, 4-(4-chlorophenyl)-N-(6-(3,6-dihydro-2H-pyran-4-yl)-2-ethylimidazo[1,2-a]pyridin-3-yl)-N-methylthiazol-2-amine]",IC50,hENPP2 [1],> 1000 nM
same,IC50,hENPP2 [2],0.01 to 100 nM
"CCc1nc2ccc(C3CCN(S(C)(=O)=O)CC3)cn2c1N(C)c1nc(-c2ccc(F)cc2O)cs1 [Compound 224, 2-(2-((2-ethyl-6-(1-(methylsulfonyl)piperidin-4-yl)imidazo [1,2-a]pyridin-3-yl)(methyl)amino)thiazol-4-yl)-5-fluorophenol]",IC50,hENPP2 [1],> 1000 nM
same,IC50,hENPP2 [2],0.01 to 100 nM
"CCc1nc2ccc(N3CCN(C(=O)OC(C)(C)C)CC3)cn2c1N(C)c1nc(-c2ccc(Cl)cc2)ns1 [Compound 225, tert-butyl 4-(3-((3-(4-chlorophenyl)-1,2,4-thiadiazol-5-yl)(methyl)amino)-2-ethylimidazo[1,2-a]pyridin-6-yl) piperazine-1-carboxylate]",IC50,hENPP2 [1],> 1000 nM
same,IC50,hENPP2 [2],0.01 to 100 nM
"CCc1nc2ccc(N3CCN(C(=O)C4CC4)CC3)cn2c1N(C)c1nc(-c2ccc(F)cc2)cs1 [Compound 227, Cyclopropyl-[4-(2-ethyl-3-{[4-(4-fluoro-phenyl)-thiazol-2-yl]-methyl-amino}-imidazo[1,2-a]pyridin-6-yl)-piperazin-1-yl]-methanone]",IC50,hENPP2 [1],> 1000 nM
same,IC50,hENPP2 [2],0.01 to 100 nM
"CCc1nc2ccc(N3CCCS3(=O)=O)cn2c1N(C)c1nc(-c2ccc(F)cc2)cs1 [Compound 229, [6-(1,1-Dioxo-isothiazolidin-2-yl)-2-ethyl-imidazo[1,2-a]pyridin-3-yl]-[4-(4-fluoro-phenyl)-thiazol-2-yl]-methyl-amine]",IC50,hENPP2 [1],> 1000 nM
same,IC50,hENPP2 [2],100 to 500 nM
"CCc1nc2ccc(C3=CCN(S(=O)(=O)CCCCl)CC3)cn2c1N(C)c1nc(-c2ccc(F)cc2)cs1 [Compound 233, N-(6-(1-(3-chloropropylsulfonyl)-1,2,3,6-tetrahydropyridin-4-yl)-2-ethylimidazo[1,2-a]pyridin-3-yl)-4-(4-fluorophenyl)-N-methylthiazol-2-amine]",LPC-IC50,hENPP2 [1],not active
same,IC50,hENPP2 [2],0.01 to 100 nM
"CCc1nc2ccc(C3=NC(CO)CO3)cn2c1N(C)c1nc(-c2ccc(F)cc2)cs1 (stereo not shown) [Compound 239, (2-(2-ethyl-3-((4-(4-fluorophenyl)thiazol-2-yl)(methyl)amino)imidazo[1,2-a]pyridin-6-yl)-4,5-dihydro-oxazol-4-yl)methanol]",IC50,hENPP2 [1],> 1000 nM
same,IC50,hENPP2 [2],0.01 to 100 nM

# From patent publication US9670204B2, “Compounds and pharmaceutical compositions thereof for the treatment of inflammatory disorders” (Galapagos NV, priority 2013, dated 2017)
